Results on 17 molecules are retold here after patent US20230116602A1, “MCL1 INHIBITORS AND USES THEREOF” (California Institute of Technology, priority 2019, published 2023).

Experiment [1] deals with drug-resistant cell lines of Table 3. Description: Cell line growth retardation assay, resistant cohort. Format: cell-based, Human. As to conditions: Homo sapiens, 144 h; arithmetic mean of IC50s over the resistant cohort of Table 3, 6 days growth; read-out: AvgRes IC50. The procedure:
(§1) Cells were seeded at densities of 1,000-5,000 cells per well in 48-well tissue culture plates. After a 24 h rest period, cells were treated with compound at 10 μM, 1 μM, […], 0.08 μM, 0.016 μM, and 0.0032 μM. A group of cells were treated with the vehicle in which the compound was prepared and served as a control. Prior to treatment, cells were counted and this count was used as a baseline for the calculation of growth inhibition. The cells were grown in the presence of compounds for 6 days and were counted on day 6. All cell counting was performed using a Synentec Cellavista plate imager. Growth inhibition was calculated as a ratio of cell population doublings in the presence of compound versus the absence of compound. […] IC50 values for each compound were calculated by fitting curves to data points from each dose-response assay using the Proc NLIN function in SAS for Windows version 9.2 (SAS Institute, Inc.).
(§2) Human cancer cell lines were grouped as “sensitive” or “resistant” to MCL1 inhibition based on whether their growth was retarded by AMG-176 (i.e., (1′S,11R,12S,14E,16S,16aR,18aR)-6′-Chloro-3′,4′,12,13,16,16a,17,18,18a,19-decahydro-16-methoxy-11,12-dimethyl-,Spiro[5,7-etheno-1H,11H-cyclobut[i][1,4]oxazepino[3,4-f][1,2,7]thiadiazacyclohexadecine-2(3H),1′(2′H)-naphthalen]-8(9H)-one 10,10-dioxide) or MIK665 (i.e., (R)-2-((5-(3-chloro-2-methyl-4-(2-(4-methylpiperazin-1-yl)ethoxy)phenyl)-6-(4-fluorophenyl)thieno[2,3-d]pyrimidin-4-yl)oxy)-3-(2-((2-(2-methoxyphenyl)pyrimidin-4-yl)methoxy)phenyl)propanoic acid) (data not shown; see Table 3). These sensitive and resistant cohorts were interrogated for response to each compound, and IC50S were calculated for each cell line using the same technique described above. Average IC50S for the sensitive (“AvgSen IC50”) and resistant (“AvgRes IC50”) cohorts were calculated as arithmetic means of the group, and fold differences (“Fold Diff”) between the resistant and sensitive cohorts were calculated by diving the average IC50 for the resistant cohort by the average IC50 for the sensitive cohort. “A” represents an IC50 of 1 μM or less, “B” represents an IC50 of greater than 1 μM to 5 μM, “C” represents an IC50 of greater than 5 μM, “+” represents a fold difference of 10 or more, and “−” represents a fold difference less than 10.

Another experiment deals with MCL1 (Homo sapiens, UniProt Q07820). Description: MCL1 affinity assay (competition binding, qPCR readout). As to conditions: recombinant MCL1, 11-point 3-fold dilution series. Here is the method:
Recombinant MCL1, BCL2 and BCXL proteins were prepared in either an E. coli host derived from the BL21 strain or in HEK-293 cells. The recombinant proteins were subsequently tagged with DNA for qPCR detection. Streptavidin-coated magnetic beads were treated for 30 minutes at room temperature with the respective biotinylated peptide ligands for each recombinant protein to generate affinity resins for the assays. The liganded beads were blocked with excess biotin and washed with blocking buffer (SeaBlock (Pierce), 1% BSA, 0.05% Tween 20, 1 mM DTT) to remove unbound ligand and to reduce nonspecific binding. Binding reactions were assembled by combining recombinant protein, liganded affinity beads, and test compounds in 1× binding buffer (20% SeaBlock, 0.17×PBS, 0.05% Tween 20, 6 mM DTT). Test compounds were prepared as 111X stocks in 100% DMSO. The compounds were then diluted directly into the assays such that the final concentration of DMSO was 0.9%. The assay plates were incubated at room temperature with shaking for 1 hour and the affinity beads were washed with wash buffer (1×PBS, 0.05% Tween 20). The beads were then re-suspended in elution buffer (1×PBS, 0.05% Tween 20, 0.5 μM non-biotinylated affinity ligand) and incubated at room temperature with shaking for 30 minutes. The recombinant protein concentration in the eluates was measured by qPCR. Kds were determined using an 11-point 3-fold compound dilution series with three DMSO control points.
On the technique in general: In qPCR the cycle at which signal appears reflects the starting amount.

The subject of experiment [2] is drug-sensitive cell lines of Table 3. The experiment in a line: Cell line growth retardation assay, sensitive cohort. In kind it is cell-based, Human. The conditions noted are these: for IC50: Homo sapiens, 144 h, arithmetic mean of IC50s over the sensitive cohort of Table 3, 6 days growth, read-out: AvgSen IC50; for Fold Diff: average IC50 of resistant cohort divided by average IC50 of sensitive cohort. Here is the method:
as §1, §2

Bounds are passed on as bounds.

Sequence of MCL1 (Q07820 whole entry): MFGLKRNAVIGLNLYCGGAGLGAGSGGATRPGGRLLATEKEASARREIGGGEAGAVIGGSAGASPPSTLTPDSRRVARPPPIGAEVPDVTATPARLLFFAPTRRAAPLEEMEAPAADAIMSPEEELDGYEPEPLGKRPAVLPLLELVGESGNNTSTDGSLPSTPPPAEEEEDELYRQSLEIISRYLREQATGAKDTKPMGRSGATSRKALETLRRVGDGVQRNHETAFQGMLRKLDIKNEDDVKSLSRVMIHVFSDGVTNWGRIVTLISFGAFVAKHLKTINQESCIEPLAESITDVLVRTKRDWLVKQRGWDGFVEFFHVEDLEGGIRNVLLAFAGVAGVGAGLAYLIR

Take `COc1cccc(-c2ncc3snc(O[C@H](Cc4ccccc4OCc4ccnc(-c5ccccc5S(C)(=O)=O)n4)C(=O)O)c3c2-c2ccc(OCCN3CCN(C)CC3)c(Cl)c2C)c1` (atropisomer, axis not shown) [Compound 68]: the IC50 in experiment [1] was above 5000 nM. In addition, on MCL1, the Kd was at most 100 nM. For the same molecule, in experiment [2], the IC50 lay in the range of 1000 to 5000 nM and the “Fold Diff” value is on record as “− (“−” represents a fold difference less than 10)”.
For `CCOc1cc(-c2ncc3snc(O[C@H](Cc4ccccc4OCc4ccnc(-c5ccccc5OC)n4)C(=O)O)c3c2-c2ccc(OCCN3CCN(C)CC3)c(Cl)c2C)ccn1` (atropisomer, axis not shown) [Compound 32], in that order: above 5000 nM, at most 100 nM, at most 1000 nM and “+ (“+” represents a fold difference of 10 or more)”.
Regarding `COc1ccccc1-c1nccc(COc2ccccc2C[C@@H](Oc2nsc3cnc(C4CCC4)c(-c4ccc(OCCN5CCOCC5)c(Cl)c4C)c23)C(=O)O)n1` (atropisomer, axis not shown) [Compound 108], the IC50 in experiment [1] was above 5000 nM. At MCL1, the equilibrium dissociation constant (Kd) is at most 100 nM. Moreover, in experiment [2], the IC50 lay in the range of 1000 to 5000 nM and the “Fold Diff” value is “− (“−” represents a fold difference less than 10)”.
For `Cc1c(-c2c(C3CCC3)ncc3snc(O[C@H](Cc4ccccc4OCc4ccnc(-c5cccc(N6CCOCC6)c5)n4)C(=O)O)c23)ccc(OCCN2CCN(C)CC2)c1Cl` (atropisomer, axis not shown) [Compound 112] the same measures were above 5000 nM, at most 100 nM, at most 1000 nM and “+ (“+” represents a fold difference of 10 or more)”.
For `COc1cccc(Oc2ccc(-c3nccc(COc4ccccc4C[C@@H](Oc4nsc5cnc(C6CCC6)c(-c6ccc(OCCN7CCN(C)CC7)c(Cl)c6C)c45)C(=O)O)n3)cn2)c1` (atropisomer, axis not shown) [Compound 114] the same measures were above 5000 nM, 101 to 500 nM, 1000 to 5000 nM and “− (“−” represents a fold difference less than 10)”.
For `COc1ccccc1-c1nccc(COc2ccccc2C[C@@H](Oc2nsc3cnc(C4CCC4)c(-c4ccc(OC)c(Cl)c4C)c23)C(=O)O)n1` (atropisomer, axis not shown) [Compound 107], in that order: above 5000 nM, at most 100 nM, above 5000 nM and “− (“−” represents a fold difference less than 10)”.
Regarding `Cn1nc(-c2cc(CC3CCC3)c3c(O[C@H](Cc4ccccc4OCc4ccnn4CC(F)(F)F)C(=O)O)nsc3c2)c2ccc(Cl)cc21` [Compound 96], the IC50 in experiment [1] is above 5000 nM. Besides, the Kd on MCL1 was above 1500 nM. For the same molecule, in experiment [2], the IC50 is above 5000 nM and the “Fold Diff” value is “− (“−” represents a fold difference less than 10)”.
Turning to `COc1cccc(-c2ncc3snc(O[C@H](Cc4ccccc4OCc4ccnc(N5CCCC(C)(C)C5)n4)C(=O)O)c3c2-c2ccc(OCCN3CCN(C)CC3)c(Cl)c2C)c1` (atropisomer, axis not shown) [Compound 62], in experiment [1], the IC50 is above 5000 nM. The Kd on MCL1 was 501 to 1500 nM. In experiment [2], the IC50 lay within 1000 to 5000 nM and the “Fold Diff” value was “− (“−” represents a fold difference less than 10)”.
As to `Cc1c(-c2c(C3CCC3)ncc3snc(O[C@H](Cc4ccccc4OCc4ccnc(C5CCOCC5)n4)C(=O)O)c23)ccc(OCCN2CCN(C)CC2)c1Cl` (atropisomer, axis not shown) [Compound 111], the IC50 in experiment [1] was above 5000 nM. In addition, on MCL1, the dissociation constant (Kd) is at most 100 nM. In experiment [2], the IC50 is at most 1000 nM and the “Fold Diff” value was “+ (“+” represents a fold difference of 10 or more)”.
For `COc1cccc(-c2ncc3snc(O[C@H](Cc4ccccc4OCc4ccnc(OCCCC(F)(F)F)n4)C(=O)O)c3c2-c2ccc(OCCN3CCN(C)CC3)c(Cl)c2C)c1` [Compound 59] the same measures were above 5000 nM, 101 to 500 nM, 1000 to 5000 nM and “− (“−” represents a fold difference less than 10)”.
For `COc1ncccc1-c1nccc(COc2ccccc2C[C@@H](Oc2nsc3cnc(-c4cccc(F)c4)c(-c4ccc(OCCN5CCN(C)CC5)c(Cl)c4C)c23)C(=O)O)n1` (atropisomer, axis not shown) [Compound 64], in that order: above 5000 nM, 101 to 500 nM, above 5000 nM and “− (“−” represents a fold difference less than 10)”.
For `Cc1c(-c2c(C3CCC3)ncc3snc(O[C@H](Cc4ccccc4OCc4ccnc(-c5cccc(OC(F)(F)F)c5)n4)C(=O)O)c23)ccc(OCCN2CCN(C)CC2)c1Cl` (atropisomer, axis not shown) [Compound 117], in that order: above 5000 nM, 101 to 500 nM, 1000 to 5000 nM and “− (“−” represents a fold difference less than 10)”.
For the molecule `COc1ccccc1-c1nccc(COc2ccccc2C[C@@H](Oc2nsc3cnc(C4CCC4)c(-c4ccc(OC)c(Cl)c4C)c23)C(=O)OCc2oc(=O)oc2C)n1` (atropisomer, axis not shown) [Compound 106], the IC50 in experiment [1] was above 5000 nM. Besides, on MCL1, the Kd fell in the range of 101 to 500 nM. Also, in experiment [2], the IC50 fell in the range of 1000 to 5000 nM and the “Fold Diff” value is listed as “− (“−” represents a fold difference less than 10)”.
For `COc1ccccc1-c1nccc(COc2ccccc2C[C@@H](Oc2nsc3cnc(-c4ccc(F)c(F)c4)c(-c4ccc(OCCN5CCN(C)CC5)c(Cl)c4C)c23)C(=O)O)n1` (atropisomer, axis not shown) [Compound 85], in that order: above 5000 nM, at most 100 nM, at most 1000 nM and “+ (“+” represents a fold difference of 10 or more)”.
With `COc1ccccc1-c1nccc(COc2ccccc2C[C@@H](Oc2nsc3cnc(-c4ccc(F)cc4C)c(-c4ccc(OCCN5CCN(C)CC5)c(Cl)c4C)c23)C(=O)O)n1` (atropisomer, axis not shown) [Compound 86], the IC50 in experiment [1] was above 5000 nM; in experiment [2], 1000 to 5000 nM. At MCL1, the Kd lay within 501 to 1500 nM. Moreover, the “Fold Diff” value in experiment [2] is on record as “− (“−” represents a fold difference less than 10)”.
For `COCc1ccccc1-c1nccc(COc2ccccc2C[C@@H](Oc2nsc3cnc(-c4cccc(OC)c4)c(-c4ccc(OCCN5CCN(C)CC5)c(Cl)c4C)c23)C(=O)O)n1` (atropisomer, axis not shown) [Compound 65], in that order: above 5000 nM, at most 1000 nM, at most 100 nM and “+ (“+” represents a fold difference of 10 or more)”.
For `CC(=O)N1CCN(c2ccc(-c3nccc(COc4ccccc4C[C@@H](Oc4nsc5cnc(C6CCC6)c(-c6ccc(OCCN7CCN(C)CC7)c(Cl)c6C)c45)C(=O)O)n3)cc2)CC1` (atropisomer, axis not shown) [Compound 119], in that order: above 5000 nM, at most 1000 nM, at most 100 nM and “+ (“+” represents a fold difference of 10 or more)”.

Usually IC50 stands for the concentration at which inhibition is half-maximal. By Kd is commonly meant the constant that tells how readily two partners part at equilibrium.
